In publication PMC12063055 (Crystal Growth & Design, 2025):
Converted amounts (≈) assume the structure as drawn. Like-named read-outs stand apart in the source and are kept apart here. Values belong to the compound of their own block, whether it stands above or below them.

What was measured:
[1] = Solubility studies, shake-flask method with HPLC quantification of HAL; type: physicochemical; settings: for solubility in KCl pH 1.2: buffer KCl (0.2 M) pH 1.2, 24 h stirring at 25 °C; for solubility in KCl pH 1.2 / solubility in PBS pH 6.8: HAL concentration by HPLC at 248 nm; for solubility in PBS pH 6.8: buffer PBS (0.2 M) pH 6.8, 24 h stirring at 25 °C; for improvement over HAL (solubility in KCl pH 1.2): buffer KCl pH 1.2, ratio to HAL solubility; for improvement over HAL (solubility in PBS pH 6.8): buffer PBS pH 6.8, ratio to HAL solubility
Experimental: A Scharlau (Barcelona, Spain) 100 C18 chromatographic column (3 μm, 150 × 4.6 mm) was set at 25 °C and used for compound separation, using an isocratic elution method. The mobile phase was composed of a mixture of 90% acetonitrile and 10% water. The flow rate was 0.8 mL/min, and the injection volume was 30 μL. ChemStation software was used for data acquisition and analysis (Agilent Technologies, Santa Clara, CA, USA).

[2] = high permeability but poor solubility in aqueous solution; ref [5],[6]; cited from earlier work
[3] = Acidity values (pKa) of the molecules, literature values; type: physicochemical; settings: pKa1 of HAL minus pKa1 of coformer
[4] = 25 °C, pH 1.2, aqueous buffer, thermodynamic from solid, read-out: solubility in KCl pH 1.2
[5] = 25 °C, pH 6.8, aqueous buffer, thermodynamic from solid, read-out: solubility in PBS pH 6.8

Compound: O=C(CCCN1CCC(O)(c2ccc(Cl)cc2)CC1)c1ccc(F)cc1.O=C(CCCN1CCC(O)(c2ccc(Cl)cc2)CC1)c1ccc(F)cc1.O=C(O)c1ccc(C(=O)O)cc1.O=C(O)c1ccc(C(=O)O)cc1 [(HAL^+)2·(TR^2–)·(TR)]
solubility in KCl pH 1.2 [1]: 0.678 ± 0.019 mg/mL
solubility in PBS pH 6.8 [1]: 0.051 ± 0.002 mg/mL

Compound: O=C(CCCN1CCC(O)(c2ccc(Cl)cc2)CC1)c1ccc(F)cc1 [HAL, Haloperidol, reference compound]
solubility at 24 h ([1]; KCl buffer (0.2 M) pH 1.2, 25 °C, pH 1.2, aqueous buffer, thermodynamic from solid, read-out: solubility in KCl pH 1.2): 831 ± 42 µg/mL (≈ 2210 µM)
solubility at 24 h ([1]; PBS buffer (0.2 M) pH 6.8, 25 °C, pH 6.8, aqueous buffer, thermodynamic from solid, read-out: solubility in PBS pH 6.8): 7 ± 1 µg/mL (≈ 18.6 µM)
Biopharmaceutics Classification System (BCS) class [2]: Class II

Compound: O=C(O)CCCC(=O)O [Glutaric acid, glutaric acid]
ΔpKa1 (difference of acidity of the coformer with HAL) [3]: 3.71

Compound: O=C(CCCN1CCC(O)(c2ccc(Cl)cc2)CC1)c1ccc(F)cc1.O=C(O)CCCC(=O)O [HAL^+·GU^–]
solubility in KCl pH 1.2 [1]: 1.021 ± 0.012 mg/mL
solubility in PBS pH 6.8 [1]: 0.048 ± 0.001 mg/mL

Compound: O=C(CCCN1CCC(O)(c2ccc(Cl)cc2)CC1)c1ccc(F)cc1.O=C(CCCN1CCC(O)(c2ccc(Cl)cc2)CC1)c1ccc(F)cc1.O=C(O)/C=C/C(=O)O.O=C(O)/C=C/C(=O)O [(HAL^+)2·(FU^2–)·(FU)]
solubility at 24 h [1, 4]: 1060 ± 27 µg/mL
solubility at 24 h [1, 5]: 33 ± 4 µg/mL
solubility at 24 h ([1]; pH 1.2, read-out: solubility in KCl pH 1.2): ~1000 µg/mL

Compound: O=C(CCCN1CCC(O)(c2ccc(Cl)cc2)CC1)c1ccc(F)cc1.O=C(O)CCCCCC(=O)O [HAL^+·PI^–]
solubility in KCl pH 1.2 [1]: 1.246 ± 0.035 mg/mL
improvement over HAL (solubility in KCl pH 1.2) [1]: 1.5×
solubility in PBS pH 6.8 [1]: 0.072 ± 0.001 mg/mL
improvement over HAL (solubility in PBS pH 6.8) [1]: 9.7×

Compound: O=C(CCCN1CCC(O)(c2ccc(Cl)cc2)CC1)c1ccc(F)cc1.O=C(CCCN1CCC(O)(c2ccc(Cl)cc2)CC1)c1ccc(F)cc1.O=C(O)CCCCCCC(=O)O.O=C(O)CCCCCCC(=O)O [(HAL^+)2·(SU^2–)·(SU)]
solubility in KCl pH 1.2 [1]: 1.074 ± 0.036 mg/mL
improvement over HAL (solubility in KCl pH 1.2) [1]: 1.3×
solubility in PBS pH 6.8 [1]: 0.017 ± 0.001 mg/mL
improvement over HAL (solubility in PBS pH 6.8) [1]: 2.3×

ΔpKa1 (difference of acidity of the coformer with HAL) [3]: 3.55
Compound: O=C(O)CCCCCC(=O)O [Pimelic acid, pimelic acid]

ΔpKa1 (difference of acidity of the coformer with HAL) [3]: 3.52
Compound: O=C(O)CCCCCCC(=O)O [Suberic acid, suberic acid]

Compound: O=C(CCCN1CCC(O)(c2ccc(Cl)cc2)CC1)c1ccc(F)cc1.O=C(O)/C=C\C(=O)O [HAL^+·ME^–]
solubility at 24 h [1, 4]: 1400 ± 20 µg/mL
solubility at 24 h [1, 5]: 74 ± 4 µg/mL
solubility of the salt relative to the ionic cocrystal (HAL^+)2·(FU^2–)·(FU) ([1]; both phases with C4 coformers): twice

Compound: O=C(CCCN1CCC(O)(c2ccc(Cl)cc2)CC1)c1ccc(F)cc1.O=C(O)CC(=O)O [HAL^+·MO^–]
solubility at 24 h [1, 4]: 525 ± 37 µg/mL
solubility at 24 h [1, 5]: 119 ± 2 µg/mL
